Experimental data reported in patent US20110224214A1, “PROCESS FOR PREPARING POLYMORPH” (SANOFI-AVENTIS U.S. LLC, priority 2008, published 2011).
Entries after “also recorded” stand apart in the source; their conditions may differ.

Key:
[1] = biological target: peripheral-type benzodiazepine receptors (Homo sapiens, UniProt P30536); conditions: cited from earlier work
[2] = polymorphic stability during wet granulation (XRPD); assay type: physicochemical; conditions: wet granulation of Example 6, dried at 50° C. for 2 hours
Procedure: The sample prepared according the Example 5, above was used to prepare a wet granulation formulation with the following composition: […]
The drug substance product of Example 5, lactose, microcrystalline cellulose (Avicel®, available from FMC BioPolymer, Philadelphia, Pa.), and sodium starch glycolate were pre-blended by screening five times with a 20 mesh screen. For the granulating fluid, the hydroxypropylmethylcellulose was dissolved in hot water at 5% concentration then cooled to 20° C. The sodium lauryl sulfate was dissolved in the cooled granulating fluid at 1.5% concentration. Approximately 50% water (relative to the weight of total solids) was used to prepare the granulation; the granulating fluid was added dropwise to the premixed powders while mixing in a mortar and pestle. The granulation was dried at 50° C. for 2 hours, and then ground in a mortar and pestle prior to analysis.
XRPD patterns were obtained with a Bruker D8® ADVANCE X-ray powder diffractometer using copper K-alpha radiation. The instrument was equipped with parallel beam optics, and the tube voltage and amperage were set to 40 kV and 40 mA, respectively. Samples were scanned at a rate of 1.0 degree/minute from 2 to 40 degrees in angle 2-theta.

[3] = stability profile of the crystalline form; assay type: physicochemical
[4] = impurity profile by HPLC after annealing; assay type: physicochemical; conditions: annealed at 80° C. for 1 hour
Procedure: 4.0 g of drug substance were dissolved in 200 mL of a 50/50 (by volume) mixture of DCM and EtOH at 20° C. The mixture was stirred for about 1 hour. The resulting clear solution was spray dried in a Buchi B290 Mini Spray Dryer by pumping the solution through a 0.7 mm nozzle (commercially available from Buchi) at approximately 2 to 3 mL/minute. The system was operated at an inlet gas temperature of 100° C. and an outlet gas temperature of approximately 70° C. The solvent was removed to isolate the solid (approximately 3.0 g).
The HPLC method parameters utilized in Example 4 were as follows: System HP 1050, column-Waters C8 Symmetry Shield 5 um (4.6×150 mm), Mobile phase (“A”): 0.05% formic acid in water, Mobile phase (“B”): 0.05% formic acid in acetonitrile, injection volume: 10 μl, wavelength: 258 nm, and flow rate: 0.8 mL/minute. A gradient method was used according to the time table below.

Sequence of peripheral-type benzodiazepine receptors (P30536 whole entry): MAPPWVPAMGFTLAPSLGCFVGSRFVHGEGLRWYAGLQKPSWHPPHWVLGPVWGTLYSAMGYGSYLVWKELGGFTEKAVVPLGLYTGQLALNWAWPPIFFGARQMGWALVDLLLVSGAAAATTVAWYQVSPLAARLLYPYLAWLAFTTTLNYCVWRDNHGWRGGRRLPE

SMILES	affinity for the peripheral-type benzodiazepine receptors [1]	conversion of Form II to crystalline Form I during the wet granulation process (XRPD) [2]	stability profile to support use in a pharmaceutical product [3]	changes in the impurity profile after the annealing process (HPLC) [4]
CN(C)C(=O)Cc1nn(-c2ccccc2)c(=O)c2c1c1ccc(Cl)cc1n2C [7-Chloro-N,N,5-trimethyl-4-oxo-3-phenyl-3,5-dihydro-4H-pyridazino[4,5-b]indole-1-acetamide]	high affinity	–	–	–
CN(C)C(=O)Cc1nn(-c2ccccc2)c(=O)c2c1c1ccc(Cl)cc1n2C [Form II, 7-chloro-N,N,5-trimethyl-4-oxo-3-phenyl-3,5-dihydro-4H-pyridazino[4,5-b]indole-1-acetamide]	–	no evidence of the Form II solid converting to crystalline Form I; also recorded: stable with respect to wet granulation	sufficient stability profile	no changes in the impurity profile
